Where two headings read alike, the source gives them in different places.
Experiments:
Type in all cases: in vivo
[1] = test system: tobacco Mosaic virus (TMV); assay: Anti-TMV activity: live protection function; conditions: for inhibition at 500 µg/mL: Tobacco mosaic virus, read-out: Relative inhibition rate (%) Live protection function; for TMV activity / antiTMV activity: 500µg/mL, Table 4 (all three modes); for TMV activity: compared with ribavirin; for antiTMV activity: compared with commercial Ningnanmycin
Method: (§1) Determination of anti-tobacco Mosaic virus (TMV) activity by the following procedure:
(§2) The virus crude extract was centrifuged with polyethylene glycol at twice and refrigerated at 4°C for use. The absorbance of 260nm wavelength was determined by ultraviolet spectrophotometer, and the virus concentration was calculated according to the formula. Virus concentration(mg/ml) = (A260 × dilution ratio)(/E)^0.10 1cm^260nm . [formula]
(§3) After weighing, cryptolepine salt derivative, ningnanmycin and the original drug of ribavirin were dissolved in DMF to obtain 1×10^5µg/mL mother solution, and then diluted to the required concentration with 1‰ Tween 80 aqueous solution.
Select the 3-5 leaf stage of tobacco Xanthi nc with uniform growth, spray the whole plant, repeat each treatment 3 times, and set 1‰ Tween80 aqueous solution as control. 24h later, the leaf surface was coated with emery (500 mesh), the disease venom was dipped with a brush, and the whole leaf surface was gently rubbed twice along the direction of the branch pulse by using the brush, the leaf was supported by palm of hand, the virus concentration was 10µg/mL, and the leaf was washed by water after inoculation. After 3 days, the number of disease spots was recorded and the prevnetion and control effect was calculated.

[2] = test system: tobacco Mosaic virus (TMV); assay: Anti-TMV activity: live treatment effect; conditions: for inhibition at 500 µg/mL: Tobacco mosaic virus, 72 h, read-out: Relative inhibition rate (%) Live treatment effect
Method: as §1, §2, §3
Select the 3-5 leaf stage of tobacco Xanthi nc with uniform growth, use a brush to vaccinate the virus in the whole leaf, the virus concentration is 10µg/mL, and the leaf was washed with running water after inoculation. After the leaves were dried, the whole plant was sprayed with test sample, repeated 3 times every treatment, and 1‰ Tween 80 aqueous solution was set as control. After 3 days, the number of disease spots was recorded and the prevnetion and control effect was calculated.

[3] = test system: rice sheath blight strains; assay: Bactericidal activity test: resistance to rice sheath blight (live pot test); conditions: for pest or weed control at 400 µg/mL: Oryza sativa, 144 h
Method: Bactericidal activity test, the determination procedure is as follows: Test of resistance to rice sheath blight: Select uniformly growing rice seedlings and spray them on the leaves at the set concentration, set a water sprayring group as blank control, every treatment was repeated twice. After 24h, the rice seedlings were inoculated with rice sheath blight strains and placed at room temperature (25±4°C) for normal management after inoculation. The prevention and control effect was investigated by visual inspection 6 days after inoculation.

[4] = test system: tobacco Mosaic virus (TMV); assay: Anti-TMV activity: living passivation activity test; conditions: for inhibition at 500 µg/mL: Tobacco mosaic virus, read-out: Relative inhibition rate (%) Living passivation activity test
Method: as §1, §2, §3
Select the 3-5 leaf stage of tobacco Xanthi nc with uniform growth, mix the test sample agent with the same volume of virus juice to passivate for 30min, friction inoculation, virus concentration 20µg/mL, the leaf was washed with running water after inoculation, repeat 3 times, set 1‰ Tween 80 aqueous solution as control. 3 days later, the number of disease spots was calculated. [formula]
Anti-tobacco Mosaic virus passivation activity test of all compounds was at a treatment dose of 500µg/mL. The positive control was the commercial anti-plant virus agent viriazole.

[5] = 400mg/L leaf spray on rice seedlings, inoculated after 24h, visual inspection 6 days after inoculation, read-out: Resistance to rice sheath blight (%)/400mg/L
[6] = read-out: Resistance to rice sheath blight (%)/400mg/L
[7] = read-out: bactericidal activity against rice sheath blight
[8] = live pot test, summary of Table 5 (400mg/L), read-out: bactericidal activity against rice sheath blight
[9] = Treatment dose 500 mg/L, tobacco Xanthi nc sprayed 24h before inoculation, virus 10µg/mL, disease spots counted after 3 days
[10] = Treatment dose 500 mg/L, tobacco Xanthi nc inoculated (virus 10µg/mL), then sprayed, disease spots counted after 3 days
[11] = Treatment dose 500 mg/L, sample mixed with virus juice for 30min, then inoculated on tobacco Xanthi nc, virus 20µg/mL, 3 days

Compound | inhibition at 500 µg/mL [1] | inhibition at 500 µg/mL [2] | pest or weed control at 400 µg/mL [3, 5] | inhibition at 500 µg/mL [4] | pest or weed control at 400 µg/mL [3, 6] | TMV activity [1] | further results
C[n+]1c2ccccc2c(NCC2CCCNC2)c2[nH]c3ccccc3c21 (stereo not drawn) [Example 43] | 26.1 ± 1% | 28.3 ± 0.2% | 30% | 30 ± 2.1% |  |  | 
Cc1ccc(S(=O)(=O)n2c3ccc(F)cc3c3c2cc2ccccc2[n+]3C)cc1 [Example 4] | 21.6 ± 3.4% | 18.6 ± 1.2% |  | 14.1 ± 1.3% | 60% |  | pest or weed control at 400 µg/mL [3, 7]: > 50%
C[n+]1c2ccccc2c(NC2CCNCC2)c2[nH]c3ccccc3c21 [Example 41] | 40.8 ± 4.7% | 34.1 ± 2.3% | 40% | 30.6 ± 4% |  | better TMV activity than the ribavirin | 
CN(C)CC(C)(C)CNc1c2ccccc2[n+](C)c2c1[nH]c1ccccc12 [Example 39] | 25.4 ± 3.8% | 30.1 ± 0.2% | 25 ± 5% | 28.9 ± 2.1% |  |  | 
Cc1ccc(S(=O)(=O)n2c3ccccc3c3c2cc2ccccc2[n+]3CC(C)(C)C)cc1 [Example 20] | 51.3 ± 3.5% | 48.5 ± 3% |  | 53 ± 2.1% | 55 ± 5% | better TMV activity than the ribavirin | antiTMV activity [1]: comparable to that of commercial Ningnanmycin; pest or weed control at 400 µg/mL [3, 7]: > 50%
CCCNc1c2ccccc2[n+](C)c2c1[nH]c1ccccc12 [Example 23] | 33 ± 2.9% | 30.1 ± 1% | 30% | 35.2 ± 1.1% |  |  | 
CC(N)CNc1c2ccccc2[n+](C)c2c1[nH]c1ccccc12 (stereo not drawn) [Example 35] | 41 ± 2.4% | 48 ± 1.5% | 25 ± 5% | 44.3 ± 2.9% |  | better TMV activity than the ribavirin | 
Cc1ccc(S(=O)(=O)n2c3ccccc3c3c2cc2cc(Br)ccc2[n+]3C)cc1 [Example 13] | 50.8 ± 1% | 52 ± 2.4% |  | 46.1 ± 3.9% | 35 ± 5% | better TMV activity than the ribavirin | antiTMV activity [1]: comparable to that of commercial Ningnanmycin
C[n+]1c2ccccc2cc2c1c1ccccc1n2S(=O)(=O)c1ccccc1 [Example 22] | 14 ± 1.1% | 18.2 ± 1.1% |  | 15.5 ± 1.1% | 45 ± 5% |  | pest or weed control at 400 µg/mL [3, 7]: > 50%
CN1CCC(Nc2c3ccccc3[n+](C)c3c2[nH]c2ccccc23)CC1 [Example 44] | 27.3 ± 4.4% | 33.1 ± 0.3% | 55 ± 5% | 35.3 ± 2.1% |  |  | pest or weed control at 400 µg/mL [3, 8]: > 50%
Cc1ccc(S(=O)(=O)n2c3ccc(Br)cc3c3c2cc2ccccc2[n+]3C)cc1 [Example 6] | 48.4 ± 4.7% | 45.2 ± 3.6% |  | 41 ± 2.2% | 40% | better TMV activity than the ribavirin | antiTMV activity [1]: comparable to that of commercial Ningnanmycin
Cc1ccc(S(=O)(=O)n2c3ccccc3c3c2cc2cc(C(F)(F)F)ccc2[n+]3C)cc1 [Example 14] | 15.3 ± 1.2% | 18.9 ± 1.2% |  | 20.1 ± 1.5% | 60% |  | pest or weed control at 400 µg/mL [3, 7]: > 50%
Cc1ccc(S(=O)(=O)n2c3ccccc3c3c2cc2cc(C)ccc2[n+]3C)cc1 [Example 9] | 23.8 ± 3.5% | 19.1 ± 0.1% |  | 23.1 ± 0.9% | 70% |  | pest or weed control at 400 µg/mL [3, 7]: > 50%
CCNCCNc1c2ccccc2[n+](C)c2c1[nH]c1ccccc12 [Example 37] | 31.6 ± 3.2% | 20.7 ± 1.2% | 40% | 33.6 ± 0.8% |  |  | 
CCCCCCCCCCCCNc1c2ccccc2[n+](C)c2c1[nH]c1ccccc12 [Example 25] |  |  |  |  |  |  | Relative inhibition rate (%) Live protection function [1, 9]: 27.3±3.0%; Relative inhibition rate (%) Live treatment effect [2, 10]: 22.1±1.1%; Resistance to rice sheath blight (%)/400mg/L ([3]; 400mg/L leaf spray on rice seedlings, inoculated after 24h, visual inspection 6 days after inoculation): 20±0%; Relative inhibition rate (%) Living passivation activity test [4, 11]: 35.1±0.1%
Cc1ccc(S(=O)(=O)n2c3ccccc3c3c2cc2ccccc2[n+]3CC2CCCCC2)cc1 [Example 19] | 47 ± 2.8% | 42.4 ± 4.9% |  | 44.2 ± 3.4% | 20% | better TMV activity than the ribavirin | 
C[n+]1c2ccccc2c(NCCN)c2[nH]c3ccccc3c21 [Example 32] | 25.1 ± 4.3% | 30.1 ± 0.4% | 30% | 28.7 ± 2.1% |  |  | 
C[n+]1c2ccccc2c(NC2CCCC2)c2[nH]c3ccccc3c21 [Example 29] | 38.6 ± 4.6% | 36.5 ± 2.3% | 30% | 30.5 ± 0.9% |  |  | 
C[n+]1c2ccccc2c(NCCCN2CCCCC2)c2[nH]c3ccccc3c21 [Example 47] | 36.4 ± 2.8% | 33.3 ± 2% | 45 ± 5% | 35.7 ± 0.3% |  |  | pest or weed control at 400 µg/mL [3, 8]: > 50%
Cc1ccc(S(=O)(=O)n2c3ccc(Cl)cc3c3c2cc2ccccc2[n+]3C)cc1 [Example 5] | 46.7 ± 4.1% | 35.8 ± 4.8% |  | 39.3 ± 2.5% | 55 ± 5% | better TMV activity than the ribavirin | antiTMV activity [1]: comparable to that of commercial Ningnanmycin; pest or weed control at 400 µg/mL [3, 7]: > 50%
CC(C)CCNc1c2ccccc2[n+](C)c2c1[nH]c1ccccc12 [Example 26] | 43.1 ± 3.4% | 45.4 ± 1.9% | 35 ± 5% | 37 ± 3% |  | better TMV activity than the ribavirin | 
COc1ccc2c(c1)c1c(cc3ccccc3[n+]1C)n2S(=O)(=O)c1ccc(C)cc1 [Example 3] | 18.1 ± 3.1% | 19.1 ± 0.1% |  | 20.3 ± 0.2% | 35 ± 5% |  | 
C[n+]1c2ccccc2c(NC2CCNC2)c2[nH]c3ccccc3c21 (stereo not drawn) [Example 40] | 45.8 ± 3.8% | 39.5 ± 3.1% | 20% | 38.6 ± 2.5% |  | better TMV activity than the ribavirin | 
Cc1nc(C(F)(F)F)c(C(=O)Nc2c(Br)cc(OC(F)(F)F)cc2Br)s1 [Thifluzamide, reference compound] |  |  | 100% |  |  |  | 
CNCC(=O)N[C@@H](CO)C(=O)N[C@H]1[C@H](O)[C@@H](O)[C@H](n2ccc(N)nc2=O)O[C@@H]1C(N)=O [Ningnanmycin, reference compound] | 58.3 ± 4.1% | 56.9 ± 2.8% |  | 59 ± 2.2% |  |  | 
NC(=O)c1ncn([C@@H]2O[C@H](CO)[C@@H](O)[C@H]2O)n1 [ribavirin, reference compound] |  |  |  |  |  |  | inhibition at 500 µg/mL [1, 9]: 39.5 ± 2%; inhibition at 500 µg/mL [2, 10]: 36.1 ± 3.7%; inhibition at 500 µg/mL [4, 11]: 38 ± 1.3%

Reference: patent publication EP4578857A1, “CRYPTOLEPINE SALT DERIVATIVE, AND PREPARATION METHOD THEREFOR AND USE THEREOF” (Nankai University, priority 2023, dated 2025)
